Measurements: PMC11201061, “Mechanistic Study of Antimicrobial Effectiveness of Cyclic Amphipathic Peptide [R4W4] against Methicillin-Resistant Staphylococcus aureus Clinical Isolates” (Antibiotics, 2024)
Structures can show the parent of a compound that is named as a salt. Where two headings read alike, the source gives them in different places.

Key:
MRSA USA300 = experiment: microbe, parasite or virus in culture
Description: MRSA USA300 bacteria from −80 °C freezer stock were cultured on an LB agar plate overnight. One bacteria colony was added to a 6 mL fresh MHB with constant shaking at 200 rpm at 37 °C. The bacteria were transferred daily by inoculating 10 μL of stationary-phase culture into […] of MHB in a 1 mL cap-clipped Eppendorf tube. Then, 20 μL of bacteria aliquot was added to […] of MHB broth, with or without [R4W4], at a final concentration of the MIC overnight in an […] at 37 °C for five transfers. […] […] Experiments were performed in triplicates. Every time we increased the concentration of [R4W4], a sample of the induction generation was inoculated into 20% (vol/vol) glycerol and stored at −70 °C. The final MIC values of [R4W4], vancomycin, and levofloxacin were determined by modified microbroth dilution assay.

B. subtilis 21332 = experiment: microbe, parasite or virus in culture; assay type: cell-based, Bacillus subtilis
Description: (§1) To determine whether the antibacterial activity of [R4W4] is bacteriostatic or bactericidal against clinical isolates of multidrug-resistant bacterial isolates, MIC and MBC were determined using the microbroth dilution method. Bacteriostatic activity was defined as a ratio of the MBC/MIC greater than four and bactericidal activity as MBC/MIC ratio ≤ 4 [33]. We added aliquots of test samples (256 μg/mL concentration of [R4W4] or vancomycin as a control prepared in TSB) to the first well of microplates. MHB media was added to the remaining wells. Two-fold serial dilutions were performed, starting with the highest drug concentration in well 1, and the dilution process continued. A bacterial aliquot of 1/150 dilution was prepared with a 0.5 McFarland standard solution from an overnight culture of the tested bacteria isolate. Bacteria were added to the microplate and placed into wells with the drug dilutions. The microplates were incubated overnight for 24 h at 37 °C. [R4W4] was synthesized and purified, as reported earlier.

MRSA LAC [1] = settings: for Lethal rate (LR), log10 reduction / % Reduction in viable bacteria: MRSA LAC in MHB
Description: The MRSA Los Angeles County (LAC) USA300 strain was cultured from −80 °C freezer stock and inoculated on an agar plate overnight. Two bacteria colonies were inoculated in MH broth overnight at 37 °C with shaking at 200 rpm. An aliquot was added to normal saline to achieve a 0.5 McFarland Standard suspension and then diluted 1:150 with MHB. The bacteria sample was plated on an agar plate at time zero. The test samples were prepared by adding [R4W4] or vancomycin to bacteria to achieve the final sample concentration of (1 × MIC, 2 × MIC, 4 × MIC) using media without antibacterial agents as positive control.
[…] The samples were diluted to minimize excessive CFU counts. The inoculated plates were incubated at 37 °C overnight. The surviving organisms were determined by counting colonies as CFU/plate. The average duplicate counts were multiplied by the dilution factors to arrive at CFU/mL. The microbial reduction was calculated by converting the count to log10 scale. The Log CFU/mL was plotted against time for different antibacterial concentrations.

MRSA LAC [2] = experiment: microbe, parasite or virus in culture; assay type: cell-based, Staphylococcus aureus; settings: Staphylococcus aureus, MRSA
Description: The effects of cations on the antimicrobial activity of [R4W4] were determined against MRSA using vancomycin as a control. The bacteria aliquots were treated with MHB media containing the final concentration of sodium chloride (NaCl) (150, 75, 37.5, and 18.75 mM), calcium chloride (CaCl2) (8, 4, 2, and 1 mM), and ferric chloride (FeCl3) (1, 4, and 8 µM) in 96 well microplates. The MIC of [R4W4] and vancomycin were determined to determine whether there were changes in the MIC values when treated with different salt concentrations.

[3] = system: Enterococcus faecium (VRE); assay type: cell-based; settings: urine isolate, microbroth dilution, 24 h, 37 °C, averages of triplicates of three different experiments, N/A = not active
Description: as §1

[4] = system: bacterial isolates (nine MRSA, B. subtilis, C. difficile, VRE); assay type: cell-based
Description: as §1

MRSA Mec III = experiment: microbe, parasite or virus in culture; assay type: cell-based, Staphylococcus aureus
Description: as §1

MRSA Clin 5 = experiment: microbe, parasite or virus in culture; assay type: cell-based, Staphylococcus aureus
Description: as §1

MRSA Mec IV = experiment: microbe, parasite or virus in culture; assay type: cell-based, Staphylococcus aureus
Description: as §1

MRSA Mec V = experiment: microbe, parasite or virus in culture; assay type: cell-based, Staphylococcus aureus
Description: as §1

MRSA Clin 6 = experiment: microbe, parasite or virus in culture; assay type: cell-based, Staphylococcus aureus
Description: as §1

[5] = system: MRSA (vancomycin hetero-non-susceptible) MU3; experiment: microbe, parasite or virus in culture; assay type: cell-based, Staphylococcus aureus
Description: as §1

MRSA Mec II = experiment: microbe, parasite or virus in culture; assay type: cell-based, Staphylococcus aureus
Description: as §1

MRSA LAC [6] = experiment: microbe, parasite or virus in culture; assay type: cell-based, Staphylococcus aureus
Description: as §1

MRSA Mec 1 = experiment: microbe, parasite or virus in culture; assay type: cell-based, Staphylococcus aureus
Description: as §1

[7] = Staphylococcus aureus, MRSA, 24 h

With `CN[C@H](CC(C)C)C(=O)N[C@H]1C(=O)N[C@@H](CC(N)=O)C(=O)N[C@H]2C(=O)N[C@H]3C(=O)N[C@H](C(=O)N[C@H](C(=O)O)c4cc(O)cc(O)c4-c4cc3ccc4O)[C@H](O)c3ccc(c(Cl)c3)Oc3cc2cc(c3O[C@@H]2O[C@H](CO)[C@@H](O)[C@H](O)[C@H]2O[C@H]2C[C@](C)(N)[C@H](O)[C@H](C)O2)Oc2ccc(cc2Cl)[C@H]1O` [Vancomycin, Vancomycin Hydrochloride, reference compound] the “MIC against index isolate (no serial passage)” value (MRSA USA300; MRSA USA300 index strain, MIC in duplicate) was 0.5 µg/mL, the “change in MIC after serial passage” value (MRSA USA300; MRSA USA300 passaged versus index strain) was 4 folds and the MIC (MRSA USA300; Staphylococcus aureus, MRSA|USA300, read-out: MIC against serial passaged [R4W4]-resistant isolate) was 4 µg/mL. For the same compound, the MBC/MIC (B. subtilis 21332; B. subtilis ATCC 21332) was 2, the MBC (B. subtilis 21332; Bacillus subtilis, ATCC21332) was 0.5 µg/mL and the MIC (B. subtilis 21332; Bacillus subtilis, ATCC21332, 24 h) was 0.25 µg/mL. For the same compound, the “Lethal rate (LR), log10 reduction” value (MRSA LAC [1]; 1 × MIC ([R4W4] 4 µg/mL, vancomycin 1 µg/mL)) was 1.02, the “% Reduction in viable bacteria” value (MRSA LAC [1]; 1 × MIC, 100 × (1 − 10^−LR)) was 90.50% and the “% Reduction in viable bacteria” value (MRSA LAC [1]; 1 × MIC, 100 × (1 − 10^−LR), listed as vancomycin) was > 90%. The “% Reduction in viable bacteria” value (MRSA LAC [1]; 2 × MIC) was 98.98%, the “Lethal rate (LR), log10 reduction” value (MRSA LAC [1]; 2 × MIC) was 1.99 and the “% Reduction in viable bacteria” value (MRSA LAC [1]; 4 × MIC) was 99.58%. For the same compound, the “Lethal rate (LR), log10 reduction” value (MRSA LAC [1]; 4 × MIC) was 2.37, the “viable bacteria at 26 h” value (MRSA LAC [1]; MRSA LAC, 4 × MIC, 26 h) was “no viable bacteria were recovered at 26 h” and the “% reduction in viable bacteria over 1 × MIC, 2 × MIC and 4 × MIC” value (MRSA LAC [1]; MRSA in MHB, range over the three concentrations) was 90.50–99.58%. The MIC (MRSA LAC [2]; read-out: MIC in the presence of calcium chloride) was 0.75 µg/mL, the MIC (MRSA LAC [2]; read-out: MIC in the presence of ferric chloride) was 0.625 to 1.25 µg/mL and the MIC (MRSA LAC [2]; read-out: MIC in the presence of sodium chloride) was 1 to 2 µg/mL. The MIC (MRSA LAC [2]; read-out: MIC under normal physiological conditions) was 1 µg/mL, the MIC [3] was “not active” and the “bacteriostatic or bactericidal (Pankey's definition, MBC/MIC ≤ 4 bactericidal)” value ([4]; all tested bacterial isolates) was “bactericidal”. For the same compound, the “MBC increase over MIC values” ([4]; all the strains tested) was 2–4 fold, the MBC/MIC (MRSA Mec III; MRSA Mec III, wound isolate) was 2 and the MBC (MRSA Mec III; Staphylococcus aureus, MRSA) was 2 µg/mL. The MIC (MRSA Mec III; [7]) was 1 µg/mL, the MBC/MIC (MRSA Clin 5; MRSA Clin 5, lung isolate) was 1 and the MBC (MRSA Clin 5; Staphylococcus aureus, MRSA) was 2 µg/mL. For the same compound, the MIC (MRSA Clin 5; [7]) was 2 µg/mL, the MBC/MIC (MRSA Mec IV; MRSA Mec IV, lung isolate) was 4 and the MBC (MRSA Mec IV; Staphylococcus aureus, MRSA) was 8 µg/mL. The MIC (MRSA Mec IV; [7]) was 2 µg/mL, the MBC/MIC (MRSA Mec V; MRSA Mec V, wound isolate) was 2 and the MBC (MRSA Mec V; Staphylococcus aureus, MRSA) was 4 µg/mL. For the same compound, the MIC (MRSA Mec V; [7]) was 2 µg/mL, the MBC/MIC (MRSA Clin 6; MRSA Clin 6, lung isolate) was 4 and the MBC (MRSA Clin 6; Staphylococcus aureus, MRSA) was 8 µg/mL. For the same compound, the MIC (MRSA Clin 6; [7]) was 2 µg/mL, the MBC/MIC ([5]; MRSA MU3, lung isolate) was 1.5 and the MBC ([5]; Staphylococcus aureus, MRSA) was 3 µg/mL. It also gave an MIC [5, 7] of 2 µg/mL, an MBC/MIC (MRSA Mec II; MRSA Mec II, blood isolate) of 2 and an MBC (MRSA Mec II; Staphylococcus aureus, MRSA) of 4 µg/mL. The MIC (MRSA Mec II; [7]) was 2 µg/mL, the MBC/MIC (MRSA LAC [6]; MRSA LAC, wound isolate) was 2 and the MBC (MRSA LAC [6]; Staphylococcus aureus, MRSA) was 2 µg/mL. It also gave an MIC (MRSA LAC [6]; [7]) of 1 µg/mL, an MBC/MIC (MRSA Mec 1; MRSA Mec 1, blood isolate) of 2 and an MBC (MRSA Mec 1; Staphylococcus aureus, MRSA) of 2 µg/mL. For the same compound, the MIC (MRSA Mec 1; [7]) was 1 µg/mL.
